Test results as given in US10709784B2, “Metal chelating compositions and methods for controlling the growth or activities of a living cell or organism” (CHELATION PARTNERS INCORPORATED, priority 2011, dated 2020).
≈ marks a conversion by molar mass, not a printed value. Read-outs that look alike come from different tables or passages of the source.

What was measured:
Format in all cases: cell-based
[1] = tested on: Escherichia coli ATCC #25922; experiment: Antibiotic MIC in untreated versus iron-extracted RPMI
Text: (§1) Test microorganisms included Pseudomonas aeruginosa strain PA01, Escherichia coli ATCC #25922 and Staphylococcus aureus ATCC #29213.

[2] = tested on: Pseudomonas aeruginosa strain PA01; experiment: as above
Text: as §1

[3] = tested on: Staphylococcus aureus ATCC #29213; experiment: as above
[4] = tested on: Candida albicans ATCC 10231; experiment: Growth with chelating materials of different molecular weight, 84 hours; conditions: 30° C., defined medium without added iron, FIG. 8
Experimental: Candida albicans ATCC 10231 was tested for its sensitivities to: the medical chelator deferiprone (#1 in the graph of FIG. 8) (a product of Apotex Pharmaceuticals); the precursor chemicals used for the preparation of soluble chelating compositions of the present invention, including 3-hydroxy-2-methyl-4-pyrone (#2 in the graph of FIG. 8), AHMP as from Example 1 (#3 in the graph of FIG. 8) and MAHMP as from Example 2 (#4 in the graph of FIG. 8) and also the soluble chelating composition as from Example 4 (#5 in the graph of FIG. 8). The yeast was grown in defined medium as for Example 18 with no additional added iron (i.e., the only but adequate Fe available for the yeast was contributed from being present along with the other added medium components). Growth of the yeast in the defined media with added test chelating materials was compared to control samples that had not received any of the chelating materials following 84 hours of incubation and growth at 30° C. […] These chelators being internalized by the yeast were incapable of restricting iron supply to the yeast cells. […] Thus, low molecular weight chelators such as deferiprone and similar compounds permitted growth while the soluble chelating composition that contained functional groups similar to deferiprone but was a molecular weight higher than 1500 Daltons restricted growth, eventhough the various compounds tested were each capable of binding iron through their pyridinone functionality.

[5] = tested on: Candida albicans ATCC 10231; experiment: Nystatin MIC (80% growth inhibition) with soluble chelator
Experimental: Candida albicans ATCC 10231, yeast cells, as grown in defined medium with no additional added Fe as in example 18 and example 19, were tested in the same media for their sensitivities to nystatin, an antifungal agent as proto-typical of the class of polyene antibiotics that are commonly used to control fungal growth and pathogenesis in humans and with nystatin plus the soluble chelating composition, as prepared in example 4. Nystatin as typical of the polyene class of antifungal agents causes membrane damage as part of its mechanism of anti-fungal activity.

[6] = tested on: antibiotic resistant strains of Staphylococcus aureus; experiment: NCCLS MIC antibiotic sensitivity with added chelator; conditions: for MIC penicillin: Strain WBG8701
Experimental: Sensitive or antibiotic resistant strains of Staphylococcus aureus (S. aureus) were grown on blood agar plates overnight at 37° C. Four to six individual colonies of each strain were harvested into Mueller-Hinton broth (MHB) and incubated at 37° C. until they reached an optical density equal to or exceeding a 0.5 McFarland standard. The culture was diluted with MHB to equal 0.5 McFarland standard. Dilutions (10^−1) of these standards were used for inocula. Various stains of antibiotic resistant Staphylococcus aureus were used for these tests as shown in the results below. It should be appreciated that growing the bacterial strains on blood agar and then in MHB ensured the inoculum was not restricted for iron prior to the test but rather the bacterial cells were with ample endogenous iron supply.
A range of two-fold dilutions of a test antibiotic was prepared in MHB. […] Soluble and insoluble chelating compositions, as prepared in Example 6 or Example 5, or the free iron chelating agent deferiprone were added to the antibiotic containing tubes at known concentrations of iron binding capacity (referred to as iron binding equivalents) to allow direct comparison of the different compositions or free chelator. The final volume per tube was 500 μl. Bacterial inoculum, 25 μl of the 10^−1 dilutions of the appropriate S. aureus strain was added to each tube. The tubes were incubated at an angle on a reciprocating shaker at 37° C. overnight and results were scored as growth based on turbidity or no growth (lack of turbidity). The Minimum Inhibitory Concentration (MIC) for the antibiotic was determined from the growth results.
A series of tests was set up as in Example 15 with various antibiotic anti-cellular agents. The clinically isolated strains were obtained from the culture collection of Warren Grubb, Curtin University, Perth, Australia.
A series of antibiotic sensitivity tests was set up as in example 16 utilizing the soluble chelating compositions as prepared in Example 6. Separate test series with different clinically isolated Staphylococcus aureus strains, as obtained from the culture collection of Warren Grubb, Curtin University, Perth, Australia, and various antibiotics were employed but for each series a control test comprising addition of iron sufficient to supply two times the chelating capacity of the supplied chelating composition was also included.

[7] = tested on: Candida albicans ATCC 10231; experiment: Fluorocytosine MIC (80% growth inhibition) with soluble chelator
Experimental: Candida albicans ATCC 10231, yeast cells, as grown in defined medium with no additional added Fe as in example 18 and example 19, were tested in the same media for their sensitivities to 5-fluorocytosine, as a proto-typical example of the class of […] that are commonly used to control fungal and cancer cell growth in humans and with fluorocytosine plus the soluble chelating composition, as prepared in example 4.

[8] = tested on: Candida albicans ATCC 10231; experiment: Preservative agent MIC (80% inhibition) challenge test with soluble chelator
[9] = Escherichia coli, ATCC25922, Treated RPMI + 0.009 μM Fe, read-out: MIC
[10] = Escherichia coli, ATCC25922, Untreated RPMI 0.11 μM Fe, read-out: MIC
[11] = Pseudomonas aeruginosa, PA01, Treated RPMI + 0.09 μM Fe, read-out: MIC
[12] = Pseudomonas aeruginosa, PA01, Untreated RPMI 0.11 μM Fe, read-out: MIC
[13] = Staphylococcus aureus, ATCC29213, Treated RPMI + 0.004 μM Fe, read-out: MIC
[14] = Staphylococcus aureus, ATCC29213, Untreated RPMI 0.11 μM Fe, read-out: MIC
[15] = strain WBG4340, No Chelator Added (control)
[16] = strain WBG525, No Chelator Added (control)
[17] = strain WBG525, plus Soluble Chelating Composition (Example 6) 1.1 mM Fe binding equivalents, * slight growth <5% of control
[18] = strain WBG525, plus Soluble Chelating Composition (Example 6) 2.2 mM Fe binding equivalents, * slight growth <5% of control

Molecule: CC1(C)S[C@@H]2[C@H](NC(=O)[C@H](N)c3ccccc3)C(=O)N2[C@H]1C(=O)O [Ampicillin]
- MIC [1, 9]: 4 µg/mL
- MIC [1, 10]: 4 µg/mL (≈ 11.4 µM)
- MIC [2, 11]: > 512 µg/mL
- MIC [2, 12]: > 512 µg/mL
- MIC [3, 13]: 0.25 µg/mL
- MIC [3, 14]: 1 µg/mL (≈ 2.86 µM)

Molecule: Cc1occc(=O)c1O [3-hydroxy-2-methyl-4-pyrone]
- growth of the yeast compared to control [4]: did not substantially restrict growth

Molecule: C[C@@H]1[C@H](O)[C@@H](C)/C=C/C=C/CC/C=C/C=C/C=C/C=C/C(O[C@H]2O[C@H](C)[C@@H](O)[C@H](N)[C@@H]2O)CC2O[C@](O)(CC(O)C(O)CCC(O)CC(O)CC(O)CC(=O)O[C@H]1C)CC(O)C2C(=O)O (stereo partly drawn) [Nystatin]
- Nystatin MIC ([5]; Nystatin alone, 4 d): 0.23 µg/mL
- Nystatin MIC ([5]; Nystatin alone, 10 d): 3.8 µg/mL
- Nystatin MIC ([5]; Nystatin alone, 21 d): 7.5 µg/mL
- Nystatin MIC ([5]; plus 25 μg/ml soluble chelator (example 4), 4 d): <0.12 µg/mL
- Nystatin MIC ([5]; plus 25 μg/ml soluble chelator (example 4), 10 d): 0.12 µg/mL
- Nystatin MIC ([5]; plus 25 μg/ml soluble chelator (example 4), 21 d): 0.47 µg/mL

Molecule: Neomycin
- MIC (100% inhibition) antibiotic [6, 15]: 1280 µg/mL
- MIC (100% inhibition) antibiotic ([6]; strain WBG4340, plus Soluble Chelating Composition (Example 6) 1.1 mM): 160 µg/mL
- MIC (100% inhibition) antibiotic ([6]; strain WBG4340, plus Soluble Chelating Composition (Example 6) 2.2 mM): 80 µg/mL
- MIC ([1]; Treated RPMI + 0.009 μM Fe): 2 µg/mL
- MIC ([1]; Untreated RPMI 0.11 μM Fe): 2 µg/mL
- MIC ([2]; Treated RPMI + 0.09 μM Fe): 16 µg/mL
- MIC ([2]; Untreated RPMI 0.11 μM Fe): 32 µg/mL
- MIC ([3]; Treated RPMI + 0.004 μM Fe): 1 µg/mL
- MIC ([3]; Untreated RPMI 0.11 μM Fe): 1 µg/mL

Molecule: [H]/N=C(/N)N[C@H]1[C@H](O)[C@@H](O)[C@H](O[C@@H]2O[C@@H](C)[C@](O)(C=O)[C@H]2O[C@@H]2O[C@@H](CO)[C@H](O)[C@@H](O)[C@@H]2NC)[C@@H](N/C(N)=N\[H])[C@@H]1O [Streptomycin]
- MIC ([6]; Staphylococcus aureus, strain WBG525, no chelator added (control), read-out: MIC Streptomycin): > 640 µg/mL
- MIC (100% inhibition) antibiotic [6, 16]: >640 µg/mL
- MIC (100% inhibition) antibiotic [6, 17]: 640* μg/ml
- MIC (100% inhibition) antibiotic [6, 18]: 160* μg/ml

Molecule: O=C(O)c1cn(C2CC2)c2cc(N3CCNCC3)c(F)cc2c1=O [Ciprofloxacin]
- MIC [1, 9]: 0.008 µg/mL
- MIC [1, 10]: 0.0078 µg/mL (≈ 0.0235 µM)
- MIC [2, 11]: 1 µg/mL
- MIC [2, 12]: 4 µg/mL (≈ 12.1 µM)
- MIC [3, 13]: 0.25 µg/mL
- MIC [3, 14]: 0.5 µg/mL (≈ 1.51 µM)

Molecule: CC(=O)O[C@H]1C[C@@]2(C)[C@@H](C[C@@H](O)[C@H]3[C@@]4(C)CC[C@@H](O)[C@@H](C)[C@@H]4CC[C@@]32C)/C1=C(\CCC=C(C)C)C(=O)O [Fusidic acid]
- MIC [1, 9]: > 512 µg/mL
- MIC [1, 10]: > 512 µg/mL
- MIC [2, 11]: > 512 µg/mL
- MIC [2, 12]: > 512 µg/mL
- MIC [3, 13]: 0.0625 µg/mL
- MIC [3, 14]: 0.25 µg/mL (≈ 0.484 µM)

Molecule: C=C(C)C(=O)NCCn1ccc(=O)c(O)c1C [MAHMP, 3-hydroxy-1-(β-methacrylamidoethyl)-2-methyl-4(1H)-pyridinone]
- growth of the yeast compared to control [4]: did not substantially restrict growth

Molecule: Cc1c(O)c(=O)ccn1CCN [AHMP, 1-aminoethyl-3-hydroxy-2-methyl-4(1H)-pyridinone]
- growth of the yeast compared to control [4]: did not substantially restrict growth

Molecule: Nc1nc(=O)[nH]cc1F [Fluorocytosine, 5-fluorocytosine]
- MIC ([7]; ATCC10231, 96 h, Fluorocytosine alone, 4 d): 0.025 µg/mL (≈ 0.194 µM)
- MIC ([7]; ATCC10231, 96 h, plus 25 μg/ml soluble chelator (example 4), 4 d): < 0.003 µg/mL
- MIC ([7]; ATCC10231, 240 h, Fluorocytosine alone, 10 d): 0.05 µg/mL (≈ 0.387 µM)
- MIC ([7]; ATCC10231, 240 h, plus 25 μg/ml soluble chelator (example 4), 10 d): 0.012 µg/mL
- MIC ([7]; ATCC10231, 504 h, Fluorocytosine alone, 21 d): 0.05 µg/mL (≈ 0.387 µM)
- MIC ([7]; ATCC10231, 504 h, plus 25 μg/ml soluble chelator (example 4), 21 d): 0.012 µg/mL

Molecule: C/C(=C\C(=O)OCCCCCCCCC(=O)O)C[C@@H]1OC[C@H](C[C@@H]2O[C@H]2[C@@H](C)[C@H](C)O)[C@@H](O)[C@H]1O [Mupirocin]
- MIC [1, 9]: 64 µg/mL
- MIC [1, 10]: 128 µg/mL (≈ 256 µM)
- MIC [2, 11]: > 512 µg/mL
- MIC [2, 12]: > 512 µg/mL
- MIC [3, 13]: 0.0156 µg/mL
- MIC [3, 14]: 0.0625 µg/mL (≈ 0.125 µM)

Molecule: CC[C@H]1OC(=O)[C@H](C)[C@@H](O[C@H]2C[C@@](C)(OC)[C@@H](O)[C@H](C)O2)[C@H](C)[C@@H](O[C@@H]2O[C@H](C)C[C@H](N(C)C)[C@H]2O)[C@](C)(OC)C[C@@H](C)C(=O)[C@H](C)[C@@H](O)[C@]1(C)O [Clarithromycin]
- MIC [1, 9]: 16 µg/mL
- MIC [1, 10]: > 512 µg/mL
- MIC [2, 11]: > 512 µg/mL
- MIC [2, 12]: > 512 µg/mL
- MIC [3, 14]: 1 µg/mL (≈ 1.34 µM)

Molecule: NC[C@H]1O[C@H](O[C@H]2[C@H](O)[C@@H](O[C@H]3O[C@H](CO)[C@@H](O)[C@H](N)[C@H]3O)[C@H](N)C[C@@H]2N)[C@H](O)[C@@H](O)[C@@H]1O [Kanamycin]
- MIC (100% inhibition) antibiotic [6, 16]: 320 µg/mL (≈ 660 µM)
- MIC (100% inhibition) antibiotic [6, 17]: 20 µg/mL
- MIC (100% inhibition) antibiotic [6, 18]: 20 µg/mL

Molecule: COC(=O)c1ccc(O)cc1 [Paraben, methyl paraben]
- MIC ([8]; ATCC10231, 48 h, read-out: Sorbate or Paraben MIC, preservative alone, 2 days): 500 µg/mL (≈ 3290 µM)
- MIC ([8]; ATCC10231, 240 h, read-out: Sorbate or Paraben MIC, preservative alone, 10 days): 1000 µg/mL (≈ 6570 µM)

Molecule: Gentamcin
- MIC (100% inhibition) antibiotic ([6]; strain WBG1320, No Chelator Added (control), * slight growth <5% of control): 320* μg/ml
- MIC (100% inhibition) antibiotic ([6]; strain WBG1320, plus Soluble Chelating Composition (Example 6) 1.1 mM, * slight growth <5% of control): 40* μg/ml
- MIC (100% inhibition) antibiotic ([6]; strain WBG1320, plus Soluble Chelating Composition (Example 6) 2.2 mM, * slight growth <5% of control): 20* μg/ml

Molecule: penicillin
- MIC penicillin ([6]; no chelator): 640 µg/mL
- MIC penicillin ([6]; plus 4.4 mM Fe binding equivalents soluble chelating composition (example 6)): 320 µg/mL
- MIC penicillin ([6]; plus iron-loaded chelating composition): did not lower the MIC

Molecule: CN(C)[C@@H]1C(O)=C(C(N)=O)C(=O)[C@@]2(O)C(O)=C3C(=O)c4c(O)cccc4[C@@](C)(O)[C@H]3C[C@@H]12 [Tetracycline]
- MIC (100% inhibition) antibiotic [6, 15]: 40 µg/mL (≈ 90 µM)
